The source of these data is US20230047816A1 (priority 2018, published 2023).

For the assay, the target named is Recombinant full length human PFKFB3 (Homo sapiens, UniProt Q16875). Put plainly: PFKFB3 kinase activity assay (ADP production, ADP-Glo).

Some results are limits rather than exact numbers.

Sequence of Recombinant full length human PFKFB3 (Q16875 whole entry): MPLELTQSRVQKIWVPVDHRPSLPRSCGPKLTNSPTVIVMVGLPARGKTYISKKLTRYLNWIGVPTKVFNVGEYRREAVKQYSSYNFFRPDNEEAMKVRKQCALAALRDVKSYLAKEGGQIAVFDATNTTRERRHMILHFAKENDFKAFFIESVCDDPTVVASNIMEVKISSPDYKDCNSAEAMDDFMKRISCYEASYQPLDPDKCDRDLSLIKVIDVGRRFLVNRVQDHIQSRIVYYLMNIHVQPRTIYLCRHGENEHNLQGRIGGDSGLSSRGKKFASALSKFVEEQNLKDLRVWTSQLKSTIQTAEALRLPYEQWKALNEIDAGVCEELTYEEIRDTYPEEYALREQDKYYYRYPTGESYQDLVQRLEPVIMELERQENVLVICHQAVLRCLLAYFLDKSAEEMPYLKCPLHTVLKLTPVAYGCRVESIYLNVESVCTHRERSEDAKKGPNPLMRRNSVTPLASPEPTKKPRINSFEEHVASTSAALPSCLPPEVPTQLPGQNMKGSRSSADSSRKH
Experimental: Recombinant full length human PFKFB3 (or PFKFB4) protein purified from Sf9 baculoviral system was acquired from SignalChem (Cat. #P323-30G or P324-30G). ATP, Fructose-6-Phosphate and other chemicals were from Sigma-Aldrich. The kinase activity of the PFKFB3 (PFKFB4) protein was detected by measuring production of ADP from ATP in the presence of the Fructose-6-Phosphate substrate. The kinase reactions were assembled in 384 well plates in a total volume of 25 μL. Test compounds were serially diluted in DMSO. Reactions were set up by first mixing test compounds with enzyme and pre-incubating for 15 min. The ATP and Fructose-6-Phosphate substrates were next added to initiate the kinase reactions.
The compounds of invention listed below in this example were tested at various concentrations (which also added 1% DMSO from compounds, to the final solution) as described below. The kinase reactions were allowed to proceed for 1 h at room temperature. Aliquots of the reaction mixtures (5 μL) were transferred to fresh white 384 well plates and mixed with 5 μL of the ADP-Glo reagent (Promega), followed by incubation for 30 min. The luminescent Kinase Detection reagent was added (10 μL) and, following additional incubation for 15 min, the plates were read on luminescence plate reader (Analyst HT). Positive (100%-inhibition) and negative (0%-inhibition) control samples were assembled in each assay plate and were used to calculate percent inhibition values of test compounds. All experiments were performed in duplicate.

Turning to `O=C(O)c1ccc(C(=O)Nc2ncc([N+](=O)[O-])s2)c(C(=O)O)c1` [Example 38, 4-[(5-nitro-1,3-thiazol-2-yl)carbamoyl]benzene-1,3-dicarboxylic acid], the IC50 was below 0.5 µM.

As for `CNCCOC(=O)c1cc(-c2c[nH]cn2)ccc1N1C(=O)c2ccc(C(=O)O)cc2C1=O` [Compound 77, 2-[4-(1H-Imidazol-4-yl)-2-(2-methylaminoethoxycarbonyl)-phenyl]-1,3-dioxo-2,3-dihydro-1H-isoindole-5-carboxylic Acid], the IC50 is 0.5 to 2 µM.

In the case of `CS(=O)(=O)NC(=O)c1ccc2c(c1)C(=O)N(c1cc(-c3ccc(F)c(F)c3)ccc1C(=O)OCCN1CCCC1)C2` [Compound 109, 3′,4′-Difluoro-3-(6-methanesulfonylaminocarbonyl-1-oxo-1,3-dihydroisoindol-2-yl)biphenyl-4-carboxylic acid 2-pyrrolidin-1-yl-ethyl ester], the IC50 was below 20 µM.

As for `NC(=O)c1ccc2c(c1)C(=O)N(c1cc(-c3ccccc3)ccc1C(=O)O)C2=O` [Example 28], the IC50 lay in the range of 0.5 to 2 µM.

On to `NC(=O)c1ccc(-c2ccc(F)c(F)c2)cc1N1Cc2ccc(-c3c[nH]nn3)cc2C1=O` [Compound 113, 3′,4′-Difluoro-3-[1-oxo-6-(1H-[1,2,3]triazol-4-yl)-1,3-dihydroisoindol-2-yl]biphenyl-4-carboxylic acid amide], for which the IC50 is below 20 µM.

As for `O=C(OCCN1CCCC1)c1cc(-c2ccccc2)ccc1N1C(=O)c2ccc(-c3c[nH]nn3)cc2C1=O` [Compound 79, 4-[1,3-Dioxo-5-(1H-[1,2,3]triazol-4-yl)-1,3-dihydroisoindol-2-yl]biphenyl-3-carboxylic acid 2-pyrrolidin-1-yl-ethyl ester], the IC50 is 5 to 20 µM.

For the compound `CC(=O)OCCOC(=O)c1ccc(-c2ccc(F)c(F)c2)cc1N1C(=O)c2ccc(-c3cnn[nH]3)cc2C1=O` [compound 168, 2-(acetyloxy)ethyl 3-[1,3-dioxo-5-(1H-1,2,3-triazol-5-yl)-2,3-dihydro-1H-isoindol-2-yl]-3′,4′-difluoro[1,1′-biphenyl]-4-carboxylate], the IC50 was below 20 µM.

Regarding `O=C(O)c1ccc2c(c1)C(=O)N(c1cc(-c3ccc(Cl)cc3Cl)ccc1C(=O)O)C2=O` [Compound 142, 2-(4-Carboxy-2′,4′-dichloro[1,1′-biphenyl]-3-yl)-1,3-dioxo-2,3-dihydro-1H-isoindole-5-carboxylic acid], the IC50 is below 0.5 µM.

Consider `O=C1c2ccc(-c3c[nH]nn3)cc2C(=O)N1c1cc(-c2ccc(F)cc2)ccn1` [Compound 87, 2-[4-(4-Fluorophenyl)-pyridin-2-yl]-5-(1H-[1,2,3]triazol-4-yl)-isoindole-1,3-dione], for which the IC50 is 5 to 20 µM.

With `O=C(NS(=O)(=O)c1ccccc1)c1ccc2c(c1)C(=O)N(c1ccc(-c3ccccc3)cc1C(=O)O)C2=O` [Example 22], the IC50 was in the range of 2 to 5 µM.

`O=C(O)c1ccc2c(c1)C(=O)N(c1cc(-c3cccs3)ccc1C(=O)O)C2=O` [Example 48, 2-(2-Carboxy-5-thiophen-2-yl-phenyl)-1,3-dioxo-2,3-dihydro-1H-isoindole-5-carboxylic Acid]: the IC50 is below 0.5 µM.

With `O=C(O)c1ccc(-c2ccc(F)cc2)cc1N1C(=O)c2ccc(-c3c[nH]nn3)cc2C1=O` [Example 57], the IC50 was 2 to 5 µM.

`Cc1ccc(-c2ccc(C(=O)O)c(N3C(=O)c4ccc(C(=O)O)cc4C3=O)c2)cc1` [Compound 141, 2-(4-Carboxy-4′-methyl[1,1′-biphenyl]-3-yl)-1,3-dioxo-2,3-dihydro-1H-isoindole-5-carboxylic acid]: the IC50 was below 0.5 µM.

Regarding `CNC(=O)c1cc(CO)ccc1C(=O)Nc1sc(C)c(-c2ccc(OC)cc2)c1C#N` [Example 15, N1-[3-cyano-4-(4-methoxyphenyl)-5-methylthiophen-2-yl]-4-(hydroxymethyl)-N2-methylbenzene-1,2-dicarboxamide], the IC50 is below 20 µM.

As to `O=C(O)c1ccc2c(c1)C(=O)N(c1cc(-c3ccccc3)ccc1CO)C2=O` [Example 11], the IC50 was 5 to 20 µM.

As to `O=C1c2ccc(-c3c[nH]nn3)cc2C(=O)N1c1cc(-c2ccccc2)cc[n+]1[O-]` [Compound 85, 2-{1,3-Dioxo-5-(1H-[1,2,3]triazol-4-yl)-2,3-dihydro-1H-isoindol-2-yl}-4-phenylpyridine N-oxide], the IC50 fell in the range of 5 to 20 µM.

Regarding `O=C(O)c1cc(-c2c[nH]cn2)ccc1N1C(=O)c2ccc(-c3c[nH]nn3)cc2C1=O` [Example 60], the IC50 is below 0.5 µM.

On to `Cc1cnc(N2C(=O)c3ccc(-c4c[nH]nn4)cc3C2=O)cc1-c1ccc(F)cc1F` [Compound 90, 2-[4-(2,4-Difluoro-phenyl)-5-methyl-pyridin-2-yl]-5-(1H-[1,2,3]triazol-4-yl)-isoindole-1,3-dione], for which the IC50 was 2 to 5 µM.

Consider `O=C(O)c1ccc(-c2ccccc2)cc1N1C(=O)c2ccc(-c3c[nH]nn3)cc2C1=O` [Example 59], for which the IC50 is below 0.5 µM.

`O=C(O)c1ccc(-c2ccccc2)cc1N1C(=O)c2ccc(-c3nnn[nH]3)cc2C1=O` [Compound 95, 3-[1,3-Dioxo-5-(1H-tetrazol-5-yl)-1,3-dihydroisoindol-2-yl]biphenyl-4-carboxylic Acid]: the IC50 is below 0.5 µM.

Turning to `O=C(O)c1ccc(-c2ccc(F)c(F)c2)cc1N1Cc2ccc(-c3c[nH]nn3)cc2C1=O` [Compound 111, 3′,4′-Difluoro-3-[1-oxo-6-(1H-[1,2,3]triazol-4-yl)-1,3-dihydroisoindol-2-yl]biphenyl-4-carboxylic Acid], the IC50 is below 0.5 µM.

For the compound `CC(C)OC(=O)c1ccc(-c2ccccc2)cc1N1C(=O)c2ccc(-c3nnn[nH]3)cc2C1=O` [Compound 96, 3-[1,3-Dioxo-5-(1H-tetrazol-5-yl)-1,3-dihydroisoindol-2-yl]biphenyl-4-carboxylic acid isopropyl ester], the IC50 is 5 to 20 µM.

Turning to `CN1CCC(OC(=O)c2ccc(-c3ccc(Cl)cc3Cl)cc2NC(=O)c2cc(O)c(C(=O)O)cc2C(=O)O)C1` (stereo not drawn) [Example 67, 4-[(2′,4′-dichloro-4-{[(1-methylpyrrolidin-3-yl)oxy]carbonyl}-[1,1′-biphenyl]-3-yl)carbamoyl]-6-hydroxybenzene-1,3-dicarboxylic acid], the IC50 was below 0.5 µM.

For `CC(C)OC(=O)c1ccc(-c2ccc(F)c(F)c2)cc1N1Cc2ccc(C(=O)NS(C)(=O)=O)cc2C1=O` [Compound 125, 3′,4′-Difluoro-3-(6-methanesulfonylaminocarbonyl-1-oxo-1,3-dihydro-isoindol-2-yl)-biphenyl-4-carboxylic acid isopropyl ester], the IC50 is below 20 µM.

For the compound `CN(C)S(=O)(=O)c1cc(-c2cnn[nH]2)c(Cl)cc1C(=O)Nc1cc(-c2ccc(F)c(F)c2)ccc1C(=O)O` [Example 26, 3-(5-chloro-2-(N,N-dimethylsulfamoyl)-4-(1H-1,2,3-triazol-5-yl)benzamido)-3′,4′-difluoro-[1,1′-biphenyl]-4-carboxylic acid], the IC50 lay in the range of 2 to 5 µM.

Regarding `O=C(O)c1cc(C(=O)Nc2cc(N3CC4CCC3C4)ccc2C(=O)O)c(C(=O)O)cc1O` (stereo not drawn) [Example 61, 2-[(5-{2-azabicyclo[2.2.1]heptan-2-yl}-2-carboxyphenyl)carbamoyl]-5-hydroxybenzene-1,4-dicarboxylic acid], the IC50 was below 0.5 µM.

Take `O=C1c2ccc(-c3c[nH]nn3)cc2C(=O)N1c1cc(-c2ccccc2)cnc1O` [Compound 83, 2-(2-Hydroxy-5-phenylpyridin-3-yl)-5-(1H-[1,2,3]triazol-4-yl)-isoindole-1,3-dione]: the IC50 lay within 2 to 5 µM.

Broadly, the IC50 is the concentration that gives 50% inhibition.
